The supplement of paper PMC10627819

Legend:
S. pneumoniae D39V [1] = assay: fitness (endpoint OD595 vs no drug) (fraction); higher = more growth
How it was run: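 In 384-well plates at 37 °C, cultures began at OD595 0.01 in 30 µl, with 55 µl used for S. pneumoniae. OD595 readings every 30 min for 14 h were corrected by the first reading. Fitness divides the stationary-phase transition optical density by the robust mean of no-drug control wells. The result is capped at 1.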

B. subtilis 168 = assay: Bliss interaction score (quartile over a dose matrix) (fitness difference); higher = more antagonism (negative = synergy)
How it was run: (§1)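 The Bliss score is observed minus expected fitness, where expected fitness is the product of the single-drug fitness values inferred from the combination data. Fitness is the OD595 at the onset of stationary phase over the plate's robust no-drug mean, capped at 1. Scores are summarised by quartiles over technical, biological and donor/recipient replicates.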

S. aureus DSM 20231 = assay: as above
How it was run: as §1

S. aureus Newman = assay: as above
How it was run: as §1

S. pneumoniae D39V [2] = assay: as above
How it was run: as §1
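Throughout, for Bliss interaction score (quartile over a dose matrix): first quartile when negative (synergy) and third quartile when positive (antagonism).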
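Throughout, for fitness (endpoint OD595 vs no drug): OD595 on entry to stationary phase over no-drug wells; at most 1.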

Clc1ccc(COC(Cn2ccnc2)c2ccc(Cl)cc2Cl)c(Cl)c1 (centres undefined) [Miconazole] + CCC(C)C1C(=O)NC(=C)C(=O)NC(C(=O)NC(CSCC(C(=O)N1)NC(=O)/C(=C/C)/NC(=O)C(C(C)CC)N)C(=O)NC2C(SCC(NC(=O)CNC(=O)C3CCCN3C2=O)C(=O)NC(CCCCN)C(=O)NC4C(SCC(NC(=O)CNC(=O)C(NC(=O)C(NC(=O)C(NC(=O)CNC4=O)C)CC(C)C)CCSC)C(=O)NC(CC(=O)N)C(=O)NC(CCSC)C(=O)NC(CCCCN)C(=O)NC5C(SCC6C(=O)NC(C(=O)NC(CSC(C(C(=O)N6)NC(=O)C(NC5=O)C)C)C(=O)NC(CO)C(=O)NC(C(C)CC)C(=O)NC(CC7=CN=CN7)C(=O)NC(C(C)C)C(=O)NC(=C)C(=O)NC(CCCCN)C(=O)O)CC8=CN=CN8)C)C)C)CC(C)C [Nisin]
fitness, S. pneumoniae D39V [1], main component drawn
Conditions	first compound 1.073 µg/mL	first compound 1.25 µg/mL	first compound 2.145 µg/mL	first compound 2.5 µg/mL	first compound 4.29 µg/mL	first compound 5 µg/mL
partner 0.4275 µg/mL	–	0.979	–	0.998	–	0.987
partner 0.855 µg/mL	–	0.973	–	0.965	–	0.977
partner 1.6 µg/mL	0.264	–	0.16	–	0.172	–
partner 1.71 µg/mL	–	0.0702	–	0.146	–	0.119
partner 3.2 µg/mL	0.0113	–	0.0171	–	0.151	–
partner 6.4 µg/mL	0.0029	–	0.0131	–	0.168	–

main component drawn
Conditions	Bliss interaction score
B. subtilis 168	0.0476
S. aureus DSM 20231	-0.0527
S. aureus Newman	-0.0601
S. pneumoniae D39V [2]	0.166

Clc1ccc(COC(Cn2ccnc2)c2ccc(Cl)cc2Cl)c(Cl)c1 (centres undefined) [Miconazole] + CCN(CC)CCOC(=O)c1ccc(N)cc1 [Procaine]
fitness, S. pneumoniae D39V [1]
Conditions	first compound 1.073 µg/mL	first compound 2.145 µg/mL	first compound 4.29 µg/mL
partner 85.5 µg/mL	≥ 1	≥ 1	0.936
partner 171 µg/mL	0.993	0.999	0.899
partner 342 µg/mL	0.997	≥ 1	0.871

fitness, S. pneumoniae D39V [1], one replicate
Conditions	first compound 1.25 µg/mL	first compound 2.5 µg/mL	first compound 5 µg/mL
partner 85.5 µg/mL	0.983	≥ 1	≥ 1
partner 171 µg/mL	0.971	0.976	0.992
partner 342 µg/mL	0.968	0.992	≥ 1

Conditions	Bliss interaction score
B. subtilis 168	0.0691
S. aureus DSM 20231	0.0418
S. aureus Newman	-0.0389
S. pneumoniae D39V [2]	0.0592

Clc1ccc(COC(Cn2ccnc2)c2ccc(Cl)cc2Cl)c(Cl)c1 (centres undefined) [Miconazole] + CN1C2=CC=CC=C2N=C3C1=CC=CC3=O [Pyocyanin]
fitness, S. pneumoniae D39V [1]
Conditions	first compound 1.073 µg/mL	first compound 2.145 µg/mL	first compound 4.29 µg/mL
partner 0.325 µg/mL	≥ 1	≥ 1	≥ 1
partner 0.65 µg/mL	0.975	1	0.908
partner 1.3 µg/mL	0.787	–	0.729

fitness, S. pneumoniae D39V [1], one replicate
Conditions	first compound 1.25 µg/mL	first compound 2.5 µg/mL	first compound 5 µg/mL
partner 0.325 µg/mL	0.917	0.916	0.93
partner 0.65 µg/mL	0.963	0.905	0.907

Conditions	Bliss interaction score
B. subtilis 168	-0.0752
S. aureus DSM 20231	0.0453
S. aureus Newman	0.0548
S. pneumoniae D39V [2]	0.0535

Clc1ccc(COC(Cn2ccnc2)c2ccc(Cl)cc2Cl)c(Cl)c1 (centres undefined) [Miconazole] + CN(C)c1cc(NC(=O)CNC(C)(C)C)c(O)c2c1C[C@H]1C[C@H]3[C@H](N(C)C)C(O)=C(C(N)=O)C(=O)[C@@]3(O)C(O)=C1C2=O [Tigecycline]
fitness, S. pneumoniae D39V [1]
Conditions	first compound 1.073 µg/mL	first compound 1.25 µg/mL	first compound 2.145 µg/mL	first compound 2.5 µg/mL	first compound 4.29 µg/mL	first compound 5 µg/mL
partner 0.65 µg/mL	0.992	0.974	0.998	0.982	≥ 1	≥ 1
partner 1.3 µg/mL	≥ 1	0.997	0.992	0.991	≥ 1	≥ 1
partner 2.6 µg/mL	0.999	0.982	≥ 1	0.993	0.998	0.927

Conditions	Bliss interaction score
B. subtilis 168	0.0621
S. aureus DSM 20231	0.0455
S. aureus Newman	0.0412
S. pneumoniae D39V [2]	0.0957

Clc1ccc(COC(Cn2ccnc2)c2ccc(Cl)cc2Cl)c(Cl)c1 (centres undefined) [Miconazole] + CN(N=O)C(=O)N[C@@H](C=O)[C@@H](O)[C@H](O)[C@H](O)CO [Streptozotocin]
fitness, S. pneumoniae D39V [1]
Conditions	first compound 1.073 µg/mL	first compound 2.145 µg/mL	first compound 4.29 µg/mL
partner 1.2 µg/mL	0.997	0.982	0.939
partner 2.4 µg/mL	0.989	0.988	0.938
partner 4.8 µg/mL	≥ 1	0.977	0.923

fitness, S. pneumoniae D39V [1], one replicate
Conditions	first compound 1.25 µg/mL	first compound 2.5 µg/mL	first compound 5 µg/mL
partner 1.2 µg/mL	0.924	0.903	0.942
partner 2.4 µg/mL	0.971	0.94	≥ 1
partner 4.8 µg/mL	0.788	0.813	0.841

Conditions	Bliss interaction score
B. subtilis 168	0.143
S. aureus DSM 20231	0.039
S. aureus Newman	0.0421
S. pneumoniae D39V [2]	0.0621

Clc1ccc(COC(Cn2ccnc2)c2ccc(Cl)cc2Cl)c(Cl)c1 (centres undefined) [Miconazole] + CN[C@@H]1[C@H](O)[C@H](NC)[C@H]2O[C@@]3(O)C(=O)C[C@@H](C)O[C@H]3O[C@@H]2[C@H]1O [Spectinomycin]
fitness, S. pneumoniae D39V [1]
Conditions	first compound 1.073 µg/mL	first compound 2.145 µg/mL	first compound 4.29 µg/mL
partner 4 µg/mL	≥ 1	≥ 1	0.88
partner 8 µg/mL	0.966	0.995	0.961
partner 16 µg/mL	0.942	0.963	0.893

fitness, S. pneumoniae D39V [1], one replicate
Conditions	first compound 1.25 µg/mL	first compound 2.5 µg/mL	first compound 5 µg/mL
partner 4 µg/mL	0.963	0.95	0.985
partner 8 µg/mL	0.891	0.879	0.906

Conditions	Bliss interaction score
B. subtilis 168	0.0664
S. aureus DSM 20231	-0.0228
S. aureus Newman	0.0708
S. pneumoniae D39V [2]	0.09

Clc1ccc(COC(Cn2ccnc2)c2ccc(Cl)cc2Cl)c(Cl)c1 (centres undefined) [Miconazole] + CN[C@@H]1[C@H](O[C@H]2[C@H](O[C@H]3[C@H](O)[C@@H](O)[C@H](N=C(N)N)[C@@H](O)[C@@H]3N=C(N)N)O[C@@H](C)[C@]2(O)C=O)O[C@@H](CO)[C@H](O)[C@H]1O [Streptomycin]
fitness, S. pneumoniae D39V [1]
Conditions	first compound 1.073 µg/mL	first compound 1.25 µg/mL	first compound 2.145 µg/mL	first compound 2.5 µg/mL	first compound 4.29 µg/mL	first compound 5 µg/mL
partner 2 µg/mL	0.978	–	0.977	–	0.936	–
partner 4 µg/mL	0.988	0.909	0.988	0.904	0.946	0.912
partner 8 µg/mL	≥ 1	0.86	≥ 1	0.832	0.932	0.86

fitness, S. pneumoniae D39V [1], one replicate
Conditions	first compound 1.25 µg/mL	first compound 2.5 µg/mL	first compound 5 µg/mL
partner 2 µg/mL	0.922	0.964	0.977
partner 16 µg/mL	0.712	0.632	0.679

Conditions	Bliss interaction score
B. subtilis 168	0.0605
S. aureus DSM 20231	0.0476
S. aureus Newman	0.0487
S. pneumoniae D39V [2]	0.0827

Clc1ccc(COC(Cn2ccnc2)c2ccc(Cl)cc2Cl)c(Cl)c1 (centres undefined) [Miconazole] + CN[C@H](CC(C)C)C(=O)N[C@H]1C(=O)N[C@@H](CC(N)=O)C(=O)N[C@H]2C(=O)N[C@H]3C(=O)N[C@H](C(=O)N[C@H](C(=O)O)c4cc(O)cc(O)c4-c4cc3ccc4O)[C@H](O)c3ccc(c(Cl)c3)Oc3cc2cc(c3O[C@@H]2O[C@H](CO)[C@@H](O)[C@H](O)[C@H]2O[C@H]2C[C@](C)(N)[C@H](O)[C@H](C)O2)Oc2ccc(cc2Cl)[C@H]1O [Vancomycin]
fitness, S. pneumoniae D39V [1]
Conditions	first compound 1.073 µg/mL	first compound 1.25 µg/mL	first compound 2.145 µg/mL	first compound 2.5 µg/mL	first compound 4.29 µg/mL	first compound 5 µg/mL
partner 0.03125 µg/mL	–	0.993	–	≥ 1	–	0.966
partner 0.0625 µg/mL	–	0.909	–	0.923	–	0.913
partner 0.125 µg/mL	0.884	0.759	0.851	0.81	0.84	0.731
partner 0.5 µg/mL	–	–	–	–	0.415	–

Conditions	Bliss interaction score
B. subtilis 168	0.0343
S. aureus DSM 20231	0.0309
S. aureus Newman	0.0654
S. pneumoniae D39V [2]	0.154

Clc1ccc(COC(Cn2ccnc2)c2ccc(Cl)cc2Cl)c(Cl)c1 (centres undefined) [Miconazole] + CO[C@H]1/C=C/O[C@@]2(C)Oc3c(C)c(O)c4c(O)c(c(/C=N/N5CCN(C)CC5)c(O)c4c3C2=O)NC(=O)/C(C)=C\C=C\[C@H](C)[C@H](O)[C@@H](C)[C@@H](O)[C@@H](C)[C@H](OC(C)=O)[C@@H]1C [Rifampicin]
fitness, S. pneumoniae D39V [1]
Conditions	first compound 1.073 µg/mL	first compound 1.25 µg/mL	first compound 2.145 µg/mL	first compound 2.5 µg/mL	first compound 4.29 µg/mL	first compound 5 µg/mL
partner 0.05 µg/mL	0.974	0.774	1	0.806	0.998	0.779
partner 0.1 µg/mL	–	0.411	–	0.41	0.776	–
partner 0.2 µg/mL	0.363	–	0.37	–	0.477	–

fitness, S. pneumoniae D39V [1], one replicate
Conditions	first compound 1.25 µg/mL	first compound 2.5 µg/mL	first compound 5 µg/mL
partner 0.025 µg/mL	0.856	0.861	0.853
partner 0.2 µg/mL	0	0	0

Conditions	Bliss interaction score
B. subtilis 168	0.0476
S. aureus DSM 20231	0.035
S. aureus Newman	0.0801
S. pneumoniae D39V [2]	0.169

CC[C@H]1OC(=O)[C@H](C)C(=O)[C@H](C)[C@@H](O[C@@H]2O[C@H](C)C[C@H](N(C)C)[C@H]2O)[C@](C)(OC)C[C@@H](C)C(=O)[C@H](C)[C@H]2N(CCCCn3cnc(-c4cccnc4)c3)C(=O)O[C@]12C [Telithromycin] + COc1cc(Cc2cnc(N)nc2N)cc(OC)c1OC [Trimethoprim]
Conditions	Bliss interaction score
B. subtilis 168	-0.243
S. aureus DSM 20231	0.0276
S. aureus Newman	0.0595
S. pneumoniae D39V [2]	0.0323

CC[C@H]1OC(=O)[C@H](C)C(=O)[C@H](C)[C@@H](O[C@@H]2O[C@H](C)C[C@H](N(C)C)[C@H]2O)[C@](C)(OC)C[C@@H](C)C(=O)[C@H](C)[C@H]2N(CCCCn3cnc(-c4cccnc4)c3)C(=O)O[C@]12C [Telithromycin] + Oc1cc(Cl)ccc1Oc1ccc(Cl)cc1Cl [Triclosan]
Conditions	Bliss interaction score
B. subtilis 168	0.017
S. aureus DSM 20231	-0.0253
S. aureus Newman	0.0266
S. pneumoniae D39V [2]	0.0532

Oc1cc(Cl)ccc1Oc1ccc(Cl)cc1Cl [Triclosan] + CC1=C\[C@@H](O)CC(=O)Cc2nc(co2)C(=O)N2CCC=C2C(=O)O[C@H](C(C)C)[C@H](C)/C=C/C(=O)NC\C=C\1 [Virginiamycin M1]
Conditions	Bliss interaction score
B. subtilis 168	0.0973
S. aureus DSM 20231	0.108
S. aureus Newman	0.034
S. pneumoniae D39V [2]	0.0386

Oc1cc(Cl)ccc1Oc1ccc(Cl)cc1Cl [Triclosan] + CN[C@H](CC(C)C)C(=O)N[C@H]1C(=O)N[C@@H](CC(N)=O)C(=O)N[C@H]2C(=O)N[C@H]3C(=O)N[C@H](C(=O)N[C@H](C(=O)O)c4cc(O)cc(O)c4-c4cc3ccc4O)[C@H](O)c3ccc(c(Cl)c3)Oc3cc2cc(c3O[C@@H]2O[C@H](CO)[C@@H](O)[C@H](O)[C@H]2O[C@H]2C[C@](C)(N)[C@H](O)[C@H](C)O2)Oc2ccc(cc2Cl)[C@H]1O [Vancomycin]
Conditions	Bliss interaction score
B. subtilis 168	0.0377
S. aureus DSM 20231	0.0768
S. aureus Newman	0.0453
S. pneumoniae D39V [2]	0.0833

Oc1cc(Cl)ccc1Oc1ccc(Cl)cc1Cl [Triclosan] + COc1cc(Cc2cnc(N)nc2N)cc(OC)c1OC [Trimethoprim]
Conditions	Bliss interaction score
B. subtilis 168	0.13
S. aureus DSM 20231	-0.0451
S. aureus Newman	0.0267
S. pneumoniae D39V [2]	0.113
